In EPA's ToxValDB 9.5 (doi:10.2903/j.efsa.2015.4032):

Experiments:
[1] = system: Aphidius rhopalosiphi; test: LR50; higher = less toxic; conditions: not reported; mortality
[2] = system: Typhlodromus pyri; test: LR50; higher = less toxic; conditions: not reported; mortality
[3] = system: Daphnia magna; conditions: chronic/long-term; duration: 21 days; reproduction
[4] = system: Apis mellifera; conditions: acute, mortality
[5] = system: Rattus norvegicus
[6] = system: Bibionidae; conditions: chronic/long-term; duration: 28 days
[7] = system: Hypoaspis aculeifer; conditions: chronic/long-term
[8] = system: Folsomia candida; conditions: chronic/long-term
[9] = system: Pimephales promelas; conditions: chronic/long-term; duration: 33 days; other
[10] = system: Colinus virginianus
[11] = system: Tagia sp.

Cc1cccc2sc3nncn3c12 [2,7,8,9-Tricyclazole]
LR50 [1]: < 460 g/ha
LR50 [2]: > 460 g/ha
NOEC [3]: 1.3 mg/L
LD50 ([4]; dermal): > 99 µg/piece
LD50 ([4]; oral, unspecified): 30.9 µg/piece
LD50 ([5]; acute, oral, F, mortality): 237 mg/kg-day
NOAEL ([5]; chronic): 5 mg/kg-day
NOEC [6]: 1.68 mg/L
NOEC [7]: 16 mg/kg
NOEC [8]: 32 mg/kg
NOEC [9]: 0.743 mg/L
LD50 ([10]; acute, oral): > 2180 mg/kg-day
LC50 ([10]; acute, oral, diet): > 1140 mg/kg-day
NOAEL ([10]; reproduction developmental): 27.1 mg/kg-day
LC50 ([11]; acute, duration: 14 days, mortality): > 1000 mg/kg
NOEC ([11]; chronic/long-term): 250 mg/kg
